According to ChEMBL document CHEMBL3286206, “Conventional and microwave assisted synthesis of pyrazolone Mannich bases possessing anti-inflammatory, analgesic, ulcerogenic effect and antimicrobial properties” (Bioorg Med Chem Lett, 2014):
In brackets after ≈: the same amount, converted by molar mass. Activity calls are given as the source filed them. The calls are words filed in the database; no cut-off is given here.

How the values were obtained:
Micrococcus luteus [1] = assay: Antimicrobial activity against Micrococcus luteus assessed as zone of inhibition by agar diffusion method; type: functional
Micrococcus luteus [2] = assay: Antimicrobial activity against Micrococcus luteus assessed as zone of inhibition >8 mm by twofold serial dilution method; type: functional
Staphylococcus aureus [3] = assay: Antimicrobial activity against Staphylococcus aureus assessed as zone of inhibition by agar diffusion method; type: functional
Staphylococcus aureus [4] = assay: Antimicrobial activity against Staphylococcus aureus assessed as zone of inhibition >8 mm by twofold serial dilution method; type: functional
Klebsiella pneumoniae [5] = assay: Antimicrobial activity against Klebsiella pneumoniae assessed as zone of inhibition >8 mm by twofold serial dilution method; type: functional
Escherichia coli [6] = assay: Antimicrobial activity against Escherichia coli assessed as zone of inhibition >8 mm by twofold serial dilution method; type: functional
Klebsiella pneumoniae [7] = assay: Antimicrobial activity against Klebsiella pneumoniae assessed as zone of inhibition by agar diffusion method; type: functional
Escherichia coli [8] = assay: Antimicrobial activity against Escherichia coli assessed as zone of inhibition by agar diffusion method; type: functional
Rattus norvegicus [9] = assay: Antiinflammatory activity in albino rat assessed as inhibition of carrageenan-induced paw edema at […], po administered 1 hr prior to carrageenan challenge measured after 6 hrs relative to control; type: functional
Rattus norvegicus [10] = assay: Antiinflammatory activity in albino rat assessed as inhibition of carrageenan-induced paw edema measured as paw thickness at 0.03 mmol/kg, po administered 1 hr prior to carrageenan challenge measured after 6 hrs (reference value: 1.081 +/- 0.257 mm)
Rattus norvegicus [11] = assay: Antiinflammatory activity in albino rat assessed as inhibition of carrageenan-induced paw edema at […], po administered 1 hr prior to carrageenan challenge measured after 4 hrs relative to control; type: functional
Micrococcus luteus [12] = assay: Antimicrobial activity against Micrococcus luteus assessed as growth inhibition by agar diffusion method; type: functional
Mus musculus [13] = assay: Analgesic activity in mouse assessed as inhibition of acetic acid-induced writhing at 0.03 mM/kg
Mus musculus [14] = assay: Analgesic activity in mouse assessed as inhibition of acetic acid-induced writhing measured as potency at 0.03 mM/kg; parameters: scale not given: the % may be the effect or the level left
Rattus norvegicus [15] = assay: Antiinflammatory activity in albino rat assessed as inhibition of carrageenan-induced paw edema measured as paw thickness at 0.03 mmol/kg, po administered 1 hr prior to carrageenan challenge measured after 4 hrs (reference value: 1.260 +/- 0.172 mm)
Rattus norvegicus [16] = assay: Ulcerogenic effect in po dosed rat assessed as lesions of bleedings; type: toxicity, organism-based; conditions: in vivo
Staphylococcus aureus [17] = assay: Antimicrobial activity against Staphylococcus aureus assessed as growth inhibition by agar diffusion method; type: functional

Structure (SMILES)	diameter of the inhibition zone (DIZ) (Micrococcus luteus [1])	MIC (Micrococcus luteus [2]) [µM]	diameter of the inhibition zone (DIZ) (Staphylococcus aureus [3])	MIC (Staphylococcus aureus [4]) [µM]	MIC (Klebsiella pneumoniae [5]) [µM]	MIC (Escherichia coli [6]) [µM]	diameter of the inhibition zone (DIZ) (Klebsiella pneumoniae [7]) [mm]	diameter of the inhibition zone (DIZ) (Escherichia coli [8]) [mm]	inhibition in vivo (Rattus norvegicus [9]) [%]	Activity (Rattus norvegicus [10]) [mm]	inhibition in vivo (Rattus norvegicus [11]) [%]	growth inhibition (GI) (Micrococcus luteus [12])	inhibition (INH) (Mus musculus [13]) [%]	Activity (Mus musculus [14]) [%]	Activity (Rattus norvegicus [15]) [mm]	Activity (Rattus norvegicus [16])	growth inhibition (GI) (Staphylococcus aureus [17])
O=C(O)c1cn(C2CC2)c2cc(N3CCNCC3)c(F)cc2c1=O [CIPROFLOXACIN]	25 mm	0.59 (≈ 0.195 µg/mL)	24 mm	9.43 (≈ 3.12 µg/mL)	0.59 (≈ 0.195 µg/mL)	4.72 (≈ 1.56 µg/mL)	17	–	–	–	–	–	–	–	–	–	–
CC1=NN(C(=O)c2cc3ccccc3oc2=O)C(=O)C1CNc1ccc(S(N)(=O)=O)cc1 (configuration not stated)	inactive	–	15 mm	55 (≈ 25 µg/mL)	55 (≈ 25 µg/mL)	27.5 (≈ 12.5 µg/mL)	15	12	77.9	0.873	68.9	inactive	64.93	94.33	1.079	Non-toxic	–
CC1=NN(C(=O)c2cc3ccccc3oc2=O)C(=O)C1CNc1cccc(S(N)(=O)=O)c1 (configuration not stated)	inactive	–	18 mm	55 (≈ 25 µg/mL)	55 (≈ 25 µg/mL)	55 (≈ 25 µg/mL)	12	12	79.9	0.793	67.8	inactive	33.77	49.06	1.116	Non-toxic	–
COc1ccc2c(c1)c(CC(=O)O)c(C)n2C(=O)c1ccc(Cl)cc1 [INDOMETHACIN]	–	–	–	–	–	–	–	–	76	0.985	67.8	–	68.83	100	1.144	–	–
CC1=NN(C(=O)c2cc3ccccc3oc2=O)C(=O)C1CNc1ccc(C(=O)O)cc1 (configuration not stated)	18 mm	119 (≈ 50 µg/mL)	12 mm	59.6 (≈ 25 µg/mL)	119 (≈ 50 µg/mL)	119 (≈ 50 µg/mL)	14	12	72.6	1.081	63.6	–	61.04	88.68	1.26	Non-toxic	–
CC1=NN(C(=O)c2cc3ccccc3oc2=O)C(=O)C1CNc1ccc([N+](=O)[O-])cc1 (configuration not stated)	15 mm	119 (≈ 50 µg/mL)	12 mm	119 (≈ 50 µg/mL)	119 (≈ 50 µg/mL)	119 (≈ 50 µg/mL)	12	15	72	1.107	61.9	–	59.74	86.79	1.32	Non-toxic	–
COc1ccc(NCC2C(=O)N(C(=O)c3cc4ccccc4oc3=O)N=C2C)cc1 (configuration not stated)	inactive	–	15 mm	61.7 (≈ 25 µg/mL)	61.7 (≈ 25 µg/mL)	30.8 (≈ 12.5 µg/mL)	18	18	55.1	1.821	36.1	inactive	32.47	47.17	2.215	Toxic	–
CC1=NN(C(=O)c2cc3ccccc3oc2=O)C(=O)C1CNc1ccc(O)cc1 (configuration not stated)	18 mm	128 (≈ 50 µg/mL)	12 mm	63.9 (≈ 25 µg/mL)	63.9 (≈ 25 µg/mL)	63.9 (≈ 25 µg/mL)	18	18	50.7	1.947	35.6	–	41.56	60.38	2.231	Toxic	–
CC1=NN(C(=O)c2cc3ccccc3oc2=O)C(=O)C1CNc1ccccn1 (configuration not stated)	12 mm	66.4 (≈ 25 µg/mL)	15 mm	66.4 (≈ 25 µg/mL)	66.4 (≈ 25 µg/mL)	133 (≈ 50 µg/mL)	15	15	50.3	1.961	31.1	–	29.87	43.4	2.389	Toxic	–
CC1=NN(C(=O)c2cc3ccccc3oc2=O)C(=O)C1CNc1ccc(O)c(C(=O)O)c1 (configuration not stated)	12 mm	115 (≈ 50 µg/mL)	12 mm	115 (≈ 50 µg/mL)	115 (≈ 50 µg/mL)	57.4 (≈ 25 µg/mL)	12	12	50.9	1.939	30.9	–	35.06	50.94	2.396	Non-toxic	–
CC1=NN(C(=O)c2cc3ccccc3oc2=O)C(=O)C1CNc1c(O)cc(S(=O)(=O)O)c2ccccc12 (configuration not stated)	inactive	–	15 mm	48 (≈ 25 µg/mL)	48 (≈ 25 µg/mL)	24 (≈ 12.5 µg/mL)	18	15	45.3	2.16	21.6	inactive	54.55	79.25	2.715	–	–
CC1=NN(C(=O)c2cc3ccccc3oc2=O)C(=O)C1CNc1ccc(Cl)cc1 (configuration not stated)	18 mm	61 (≈ 25 µg/mL)	inactive	–	61 (≈ 25 µg/mL)	30.5 (≈ 12.5 µg/mL)	12	12	71.5	1.125	43.5	–	71.43	103.78	1.956	Toxic	inactive
